Results reported in ChEMBL document CHEMBL1201862, “PubChem BioAssay data set” (2004).
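All cell lines were grown in 96-well plates and treated with compound for 48 hours. The concentration for 50% growth inhibition is given as GI50.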 Active and inactive are the calls of the source. Cut-off read from the data, not from the text of the source: active = GI50 up to about 1.1 µM and inactive = higher.

Assays:
Experiment in all cases: growth of human tumour cells (NCI), 48 h
[1] = system: A498
[2] = system: T47D
[3] = system: U-251
[4] = system: SF-268
[5] = system: NCI-H460
[6] = system: ACHN
[7] = system: HOP-92
[8] = system: SF-295
[9] = system: SK-MEL-28
[10] = system: OVCAR-3
[11] = system: SK-OV-3
[12] = system: MDA-MB-435
[13] = system: NCI-H522
[14] = system: RXF 393
[15] = system: OVCAR-8
[16] = system: BT-549
[17] = system: DU-145
[18] = system: TK-10

| Compound | GI50 [1] | GI50 [2] | GI50 [3] | GI50 [4] | GI50 [5] | GI50 [6] | GI50 [7] | GI50 [8] | GI50 [9] | GI50 [10] | GI50 [11] | GI50 [12] | GI50 [13] | GI50 [14] | GI50 [15] | GI50 [16] | GI50 [17] | GI50 [18] |
| --- | --- | --- | --- | --- | --- | --- | --- | --- | --- | --- | --- | --- | --- | --- | --- | --- | --- | --- |
| Oc1ccccc1C(c1cc2c(cc1O)OCO2)N1CCOCC1 (configuration not stated) | 22.9 µM (inactive) | 16.7 µM (inactive) | 16.6 µM (inactive) | 18.5 µM (inactive) | 27.4 µM (inactive) | 17.5 µM (inactive) | 17.3 µM (inactive) | 20.6 µM (inactive) | 20.7 µM (inactive) | 17.5 µM (inactive) | 19.8 µM (inactive) | 18.2 µM (inactive) | 10.2 µM (inactive) | 14.3 µM (inactive) | 9.29 µM (inactive) | 16.6 µM (inactive) | 37.4 µM (inactive) | > 10 µM (inactive) |
| COc1cc2c(c(O)c1OC)C(=O)[C@@H]1CCC(=O)N1C2 | > 100 µM (inactive) | > 100 µM (inactive) | > 100 µM (inactive) | > 100 µM (inactive) | > 100 µM (inactive) | > 100 µM (inactive) | 71 µM (inactive) | > 100 µM (inactive) | > 100 µM (inactive) | > 100 µM (inactive) | > 100 µM (inactive) | > 100 µM (inactive) | > 100 µM (inactive) | – | > 100 µM (inactive) | > 100 µM (inactive) | > 100 µM (inactive) | > 100 µM (inactive) |
| O=C1COc2ccc([N+](=O)[O-])cc2C(=O)C1 | > 10 µM (inactive) | > 10 µM (inactive) | > 10 µM (inactive) | > 10 µM (inactive) | > 10 µM (inactive) | > 10 µM (inactive) | 0.001 µM (active) | > 10 µM (inactive) | > 10 µM (inactive) | > 10 µM (inactive) | > 10 µM (inactive) | > 10 µM (inactive) | – | > 10 µM (inactive) | > 10 µM (inactive) | > 10 µM (inactive) | > 10 µM (inactive) | > 10 µM (inactive) |
| CC1=CC2C3(C)C(C)(C(C)=CP3(=O)c3c(C(C)C)cc(C(C)C)cc3C(C)C)C1P2(=O)c1c(C(C)C)cc(C(C)C)cc1C(C)C (configuration not stated) | 2.16 µM (inactive) | 1.33 µM (inactive) | 2.45 µM (inactive) | 3.3 µM (inactive) | 1.47 µM (inactive) | 2.68 µM (inactive) | 1.64 µM (inactive) | 2.4 µM (inactive) | 2.58 µM (inactive) | 1.75 µM (inactive) | 2.38 µM (inactive) | 1.85 µM (inactive) | 2.4 µM (inactive) | 3.2 µM (inactive) | 3.37 µM (inactive) | 1.77 µM (inactive) | 3.5 µM (inactive) | 2.55 µM (inactive) |
| CCCCNC(=O)C1=C(C)NC(C)=C(C(=O)NCCCC)C1 | > 100 µM (inactive) | > 100 µM (inactive) | > 100 µM (inactive) | > 100 µM (inactive) | > 100 µM (inactive) | > 100 µM (inactive) | > 100 µM (inactive) | > 100 µM (inactive) | > 100 µM (inactive) | > 100 µM (inactive) | > 100 µM (inactive) | > 100 µM (inactive) | – | > 100 µM (inactive) | > 100 µM (inactive) | > 100 µM (inactive) | > 100 µM (inactive) | > 100 µM (inactive) |
| CCOC(=O)/C(C(N)=O)=C(/O)c1cnccn1 | > 100 µM (inactive) | > 100 µM (inactive) | > 100 µM (inactive) | > 100 µM (inactive) | > 100 µM (inactive) | > 100 µM (inactive) | > 100 µM (inactive) | > 100 µM (inactive) | > 100 µM (inactive) | > 100 µM (inactive) | > 100 µM (inactive) | > 100 µM (inactive) | > 100 µM (inactive) | > 100 µM (inactive) | > 100 µM (inactive) | > 100 µM (inactive) | > 100 µM (inactive) | – |
| N#CC(=C1CCN(CCCC(=O)c2ccc(F)cc2)CC1)c1ccccc1 | > 100 µM (inactive) | > 100 µM (inactive) | > 100 µM (inactive) | > 100 µM (inactive) | > 100 µM (inactive) | > 100 µM (inactive) | > 100 µM (inactive) | > 100 µM (inactive) | > 100 µM (inactive) | – | > 100 µM (inactive) | > 100 µM (inactive) | 21.3 µM (inactive) | > 100 µM (inactive) | > 100 µM (inactive) | > 100 µM (inactive) | > 100 µM (inactive) | > 100 µM (inactive) |
| C=CCC1C(O[Si](C)(C)C(C)(C)C)C(CO[Si](C)(C)C(C)(C)C)OC1n1ccc(=O)[nH]c1=O (configuration not stated) | 2.03 µM (inactive) | 1.3 µM (inactive) | 2.2 µM (inactive) | – | 1.16 µM (inactive) | 1.6 µM (inactive) | 1.05 µM (active) | 1.78 µM (inactive) | 1.58 µM (inactive) | 1.6 µM (inactive) | – | 1.47 µM (inactive) | – | 1.8 µM (inactive) | 1.7 µM (inactive) | 1.93 µM (inactive) | 1.52 µM (inactive) | – |
| CCOc1ccc(-n2c(=O)n3c(Nc4ccc(Cl)cc4)nc4c(c(=O)n(C)c(=O)n4C)n3c2=O)cc1 | 22.9 µM (inactive) | 39.2 µM (inactive) | 32.7 µM (inactive) | 34.8 µM (inactive) | 19.5 µM (inactive) | 43.4 µM (inactive) | 22.5 µM (inactive) | 31.6 µM (inactive) | 28.2 µM (inactive) | 23 µM (inactive) | – | 20.3 µM (inactive) | 18.1 µM (inactive) | 26.6 µM (inactive) | 36.8 µM (inactive) | 29 µM (inactive) | 40.9 µM (inactive) | 18.8 µM (inactive) |
| COc1cc(C2C(Cl)C(=O)N2NC(=O)c2ccc(NC(C)=O)cc2OC)ccc1O (configuration not stated) | 19.4 µM (inactive) | 20.9 µM (inactive) | – | 21.8 µM (inactive) | – | 23.3 µM (inactive) | 16 µM (inactive) | < 0.01 µM (active) | 28.7 µM (inactive) | 21.4 µM (inactive) | 63.1 µM (inactive) | 28 µM (inactive) | 8.45 µM (inactive) | 20.6 µM (inactive) | 22.2 µM (inactive) | 17.3 µM (inactive) | 21.3 µM (inactive) | – |
| COc1ccc2c(c1)[C@@H]1c3cc(OC)c(OC)cc3CCN1CCC2 | > 100 µM (inactive) | 31.6 µM (inactive) | > 100 µM (inactive) | > 100 µM (inactive) | 31.4 µM (inactive) | > 100 µM (inactive) | 9.18 µM (inactive) | > 100 µM (inactive) | > 100 µM (inactive) | > 100 µM (inactive) | – | > 100 µM (inactive) | > 100 µM (inactive) | > 100 µM (inactive) | > 100 µM (inactive) | 68.9 µM (inactive) | > 100 µM (inactive) | > 100 µM (inactive) |
| O=c1cc(-c2ccccc2)oc2cc(Oc3nnnn3-c3ccccc3)ccc12 | 28.3 µM (inactive) | 11.7 µM (inactive) | 19.1 µM (inactive) | 15 µM (inactive) | 36.8 µM (inactive) | 4.18 µM (inactive) | 2.37 µM (inactive) | 46.2 µM (inactive) | 79.1 µM (inactive) | 55.6 µM (inactive) | 36 µM (inactive) | 15.5 µM (inactive) | 36.1 µM (inactive) | – | 34.8 µM (inactive) | 21.4 µM (inactive) | 32.5 µM (inactive) | 67 µM (inactive) |
| NC(=O)CC(N)C(N)=O (configuration not stated) | > 100 µM (inactive) | > 100 µM (inactive) | > 100 µM (inactive) | – | > 100 µM (inactive) | > 100 µM (inactive) | > 100 µM (inactive) | > 100 µM (inactive) | > 100 µM (inactive) | > 100 µM (inactive) | > 100 µM (inactive) | > 100 µM (inactive) | > 100 µM (inactive) | > 100 µM (inactive) | > 100 µM (inactive) | > 100 µM (inactive) | > 100 µM (inactive) | > 100 µM (inactive) |
| OCCN1CN(c2nc(N3CN(CCO)C3)nc(N3CN(CCO)C3)n2)C1 | 31.5 µM (inactive) | 25.8 µM (inactive) | 22.6 µM (inactive) | 22.6 µM (inactive) | 19.5 µM (inactive) | 31.6 µM (inactive) | 19.9 µM (inactive) | – | 17.7 µM (inactive) | – | – | 17.8 µM (inactive) | 13.4 µM (inactive) | 22.7 µM (inactive) | 45.6 µM (inactive) | 32.6 µM (inactive) | 23.6 µM (inactive) | 30.6 µM (inactive) |
| N#C[BH2-][n+]1ccc(C(=O)NNCc2ccc(F)cc2)cc1 | > 100 µM (inactive) | > 100 µM (inactive) | > 100 µM (inactive) | > 100 µM (inactive) | > 100 µM (inactive) | > 100 µM (inactive) | > 100 µM (inactive) | > 100 µM (inactive) | > 100 µM (inactive) | > 100 µM (inactive) | – | > 100 µM (inactive) | > 100 µM (inactive) | > 100 µM (inactive) | > 100 µM (inactive) | > 100 µM (inactive) | > 100 µM (inactive) | > 100 µM (inactive) |
| COc1cccc2cc(C(=O)O)c(=O)oc12 | > 100 µM (inactive) | > 100 µM (inactive) | > 100 µM (inactive) | > 100 µM (inactive) | > 100 µM (inactive) | > 100 µM (inactive) | > 100 µM (inactive) | > 100 µM (inactive) | > 100 µM (inactive) | > 100 µM (inactive) | – | > 100 µM (inactive) | > 100 µM (inactive) | > 100 µM (inactive) | > 100 µM (inactive) | > 100 µM (inactive) | > 100 µM (inactive) | > 100 µM (inactive) |
